Reference: ChEMBL document CHEMBL1201862, “PubChem BioAssay data set” (2004)
Calls of active or inactive are those of the source.

Tests used:
[1] = target: Estrogen receptor beta (Homo sapiens, UniProt Q92731);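 further: recombinant ER-beta bound to coactivator SRC1 peptide in presence of estradiol agonist; inhibitors block coactivator peptide binding and lower the FRET signal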
[2] = test system: H4; test: Luminescence Cell-Based Dose Response HTS to Identify Activators of 5'UTR Stem-Loop Driven Prion Protein mRNA Translation in H4 Neuroglioblastoma Cells. [Related pubchem assays: 1829 (Project Summary), 1814 (Primary HTS)]; type: functional; conditions: Homo sapiens
[3] = Luminescence Cell-Based Dose Response HTS to Identify Activators of Luciferase Translation or Activity in H4 […] Cells. [Related pubchem assays: 1829 (Project Summary), 1814 (Primary HTS)]; type: functional
[4] = Luminescence Cell-Based Dose Confirmation HTS to Identify Activators of 5'UTR Stem-Loop Driven Alpha-Synuclein mRNA Translation in H4 Neuroglioblastoma Cells. [Related pubchem assays: 1829 (Project Summary), 1814 (Primary HTS)]; type: functional
[5] = target: T1, Sentrin-specific protease 7 (Homo sapiens, UniProt Q9BQF6); type: functional;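 further: Luminescence-based dose-response confirmation of ultra-high-throughput screening hits, measuring inhibition of SENP7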
T1 sequence (Q9BQF6 whole entry): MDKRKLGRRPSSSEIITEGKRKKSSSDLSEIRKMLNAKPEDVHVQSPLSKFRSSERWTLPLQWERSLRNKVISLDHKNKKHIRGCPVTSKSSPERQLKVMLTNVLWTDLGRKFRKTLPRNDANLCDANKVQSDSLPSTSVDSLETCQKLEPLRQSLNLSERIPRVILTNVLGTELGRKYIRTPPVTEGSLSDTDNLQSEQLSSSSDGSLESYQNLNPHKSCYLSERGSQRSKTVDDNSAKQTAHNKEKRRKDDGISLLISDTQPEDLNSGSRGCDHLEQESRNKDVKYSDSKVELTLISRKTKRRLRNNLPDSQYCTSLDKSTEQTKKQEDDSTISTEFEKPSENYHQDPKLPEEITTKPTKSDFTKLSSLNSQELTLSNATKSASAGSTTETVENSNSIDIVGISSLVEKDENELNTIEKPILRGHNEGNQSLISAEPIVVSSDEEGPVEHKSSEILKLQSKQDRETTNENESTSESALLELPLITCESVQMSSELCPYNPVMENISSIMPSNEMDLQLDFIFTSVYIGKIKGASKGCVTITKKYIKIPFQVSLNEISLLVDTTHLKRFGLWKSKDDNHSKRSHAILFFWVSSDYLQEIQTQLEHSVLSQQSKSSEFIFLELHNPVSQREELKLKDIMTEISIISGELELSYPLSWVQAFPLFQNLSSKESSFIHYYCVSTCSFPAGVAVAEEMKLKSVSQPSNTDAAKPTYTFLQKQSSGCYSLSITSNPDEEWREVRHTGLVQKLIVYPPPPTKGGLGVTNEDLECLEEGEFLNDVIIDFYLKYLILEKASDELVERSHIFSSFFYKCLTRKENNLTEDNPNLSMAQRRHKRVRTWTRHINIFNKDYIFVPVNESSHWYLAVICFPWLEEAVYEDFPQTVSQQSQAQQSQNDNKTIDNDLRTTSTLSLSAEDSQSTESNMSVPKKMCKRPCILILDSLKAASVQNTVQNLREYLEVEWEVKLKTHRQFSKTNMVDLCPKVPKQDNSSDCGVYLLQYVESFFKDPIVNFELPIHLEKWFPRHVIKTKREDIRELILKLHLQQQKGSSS

[6] = target: T2, Sentrin-specific protease 8 (Homo sapiens, UniProt Q96LD8); type: functional;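 further: luminescence read-out of SENP8 inhibition, dose-response confirmation following an ultra-high-throughput screen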
T2 sequence (Q96LD8 whole entry): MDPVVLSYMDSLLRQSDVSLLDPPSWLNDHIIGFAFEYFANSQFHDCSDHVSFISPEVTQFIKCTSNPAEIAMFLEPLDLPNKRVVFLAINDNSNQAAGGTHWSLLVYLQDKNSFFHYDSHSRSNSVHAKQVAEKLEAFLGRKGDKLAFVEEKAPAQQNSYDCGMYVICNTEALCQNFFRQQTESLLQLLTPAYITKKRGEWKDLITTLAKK

[7] = target: T3, Sentrin-specific protease 6 (Homo sapiens, UniProt Q9GZR1); type: functional;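 further: Luminescence-based dose-response confirmatory assay of SENP6 inhibition, following up an ultra-high-throughput screen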
T3 sequence (Q9GZR1 whole entry): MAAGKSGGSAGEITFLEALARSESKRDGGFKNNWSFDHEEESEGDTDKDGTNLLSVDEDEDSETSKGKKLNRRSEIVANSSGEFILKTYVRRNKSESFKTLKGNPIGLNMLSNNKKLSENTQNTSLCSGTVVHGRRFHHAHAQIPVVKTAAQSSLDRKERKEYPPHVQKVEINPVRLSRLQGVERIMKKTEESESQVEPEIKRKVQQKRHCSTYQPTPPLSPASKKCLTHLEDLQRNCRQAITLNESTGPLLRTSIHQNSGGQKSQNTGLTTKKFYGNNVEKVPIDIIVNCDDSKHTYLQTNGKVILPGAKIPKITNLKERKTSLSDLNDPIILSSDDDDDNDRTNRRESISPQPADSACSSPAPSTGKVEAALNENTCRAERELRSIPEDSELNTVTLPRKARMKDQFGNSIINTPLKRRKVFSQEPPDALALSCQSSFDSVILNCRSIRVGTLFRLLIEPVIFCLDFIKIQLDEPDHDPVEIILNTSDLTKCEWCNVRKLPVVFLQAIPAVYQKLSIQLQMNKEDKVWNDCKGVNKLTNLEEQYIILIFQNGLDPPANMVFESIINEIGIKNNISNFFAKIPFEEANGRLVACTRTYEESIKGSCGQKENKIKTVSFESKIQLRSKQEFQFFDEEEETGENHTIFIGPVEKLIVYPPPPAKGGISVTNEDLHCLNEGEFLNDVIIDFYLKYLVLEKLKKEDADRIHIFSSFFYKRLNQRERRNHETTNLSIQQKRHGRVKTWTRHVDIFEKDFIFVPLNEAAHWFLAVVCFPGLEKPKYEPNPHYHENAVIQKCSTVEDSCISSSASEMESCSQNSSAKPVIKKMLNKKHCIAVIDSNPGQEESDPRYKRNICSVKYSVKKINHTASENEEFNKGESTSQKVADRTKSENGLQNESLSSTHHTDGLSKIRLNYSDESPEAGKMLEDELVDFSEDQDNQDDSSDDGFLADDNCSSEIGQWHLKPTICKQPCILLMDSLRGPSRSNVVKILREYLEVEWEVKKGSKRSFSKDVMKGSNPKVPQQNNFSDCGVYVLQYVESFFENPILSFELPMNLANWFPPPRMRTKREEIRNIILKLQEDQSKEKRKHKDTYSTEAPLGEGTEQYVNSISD

[8] = target: T4, Caspase-3 (Homo sapiens, UniProt P42574); type: functional;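 further: Dose-response selectivity test against caspase-3 for candidate inhibitors of sentrin-specific proteases (SENPs)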
T4 sequence (P42574 whole entry): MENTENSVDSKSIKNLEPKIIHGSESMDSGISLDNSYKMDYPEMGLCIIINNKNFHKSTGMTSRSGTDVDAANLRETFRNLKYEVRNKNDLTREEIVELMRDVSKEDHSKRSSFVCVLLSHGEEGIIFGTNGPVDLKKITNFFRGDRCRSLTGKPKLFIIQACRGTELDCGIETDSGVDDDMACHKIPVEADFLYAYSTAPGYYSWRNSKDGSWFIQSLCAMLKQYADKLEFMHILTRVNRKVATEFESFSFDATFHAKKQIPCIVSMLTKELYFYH

[9] = target: T5, Estrogen receptor (Homo sapiens, UniProt P03372);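 further: potency for inhibiting coactivator peptide recruitment to the receptor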
T5 sequence (P03372 whole entry): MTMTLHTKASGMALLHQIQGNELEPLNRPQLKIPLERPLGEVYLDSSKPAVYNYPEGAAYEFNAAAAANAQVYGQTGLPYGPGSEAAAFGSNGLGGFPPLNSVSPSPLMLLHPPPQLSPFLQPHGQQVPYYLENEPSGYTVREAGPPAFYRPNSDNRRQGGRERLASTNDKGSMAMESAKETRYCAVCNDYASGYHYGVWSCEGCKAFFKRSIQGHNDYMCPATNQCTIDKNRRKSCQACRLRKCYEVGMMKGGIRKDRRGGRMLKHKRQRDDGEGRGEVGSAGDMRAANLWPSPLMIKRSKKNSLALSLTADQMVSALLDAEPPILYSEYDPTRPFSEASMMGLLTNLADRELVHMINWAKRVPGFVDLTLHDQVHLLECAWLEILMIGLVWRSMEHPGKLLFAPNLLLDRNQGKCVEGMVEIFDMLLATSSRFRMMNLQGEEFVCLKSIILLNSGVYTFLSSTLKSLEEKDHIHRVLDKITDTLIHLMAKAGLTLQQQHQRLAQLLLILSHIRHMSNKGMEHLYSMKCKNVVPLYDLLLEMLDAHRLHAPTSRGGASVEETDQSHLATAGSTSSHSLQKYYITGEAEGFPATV

[10] = target: T6, Histone-lysine N-methyltransferase NSD2 (Homo sapiens, UniProt O96028); type: biochemical
T6 sequence (O96028 whole entry): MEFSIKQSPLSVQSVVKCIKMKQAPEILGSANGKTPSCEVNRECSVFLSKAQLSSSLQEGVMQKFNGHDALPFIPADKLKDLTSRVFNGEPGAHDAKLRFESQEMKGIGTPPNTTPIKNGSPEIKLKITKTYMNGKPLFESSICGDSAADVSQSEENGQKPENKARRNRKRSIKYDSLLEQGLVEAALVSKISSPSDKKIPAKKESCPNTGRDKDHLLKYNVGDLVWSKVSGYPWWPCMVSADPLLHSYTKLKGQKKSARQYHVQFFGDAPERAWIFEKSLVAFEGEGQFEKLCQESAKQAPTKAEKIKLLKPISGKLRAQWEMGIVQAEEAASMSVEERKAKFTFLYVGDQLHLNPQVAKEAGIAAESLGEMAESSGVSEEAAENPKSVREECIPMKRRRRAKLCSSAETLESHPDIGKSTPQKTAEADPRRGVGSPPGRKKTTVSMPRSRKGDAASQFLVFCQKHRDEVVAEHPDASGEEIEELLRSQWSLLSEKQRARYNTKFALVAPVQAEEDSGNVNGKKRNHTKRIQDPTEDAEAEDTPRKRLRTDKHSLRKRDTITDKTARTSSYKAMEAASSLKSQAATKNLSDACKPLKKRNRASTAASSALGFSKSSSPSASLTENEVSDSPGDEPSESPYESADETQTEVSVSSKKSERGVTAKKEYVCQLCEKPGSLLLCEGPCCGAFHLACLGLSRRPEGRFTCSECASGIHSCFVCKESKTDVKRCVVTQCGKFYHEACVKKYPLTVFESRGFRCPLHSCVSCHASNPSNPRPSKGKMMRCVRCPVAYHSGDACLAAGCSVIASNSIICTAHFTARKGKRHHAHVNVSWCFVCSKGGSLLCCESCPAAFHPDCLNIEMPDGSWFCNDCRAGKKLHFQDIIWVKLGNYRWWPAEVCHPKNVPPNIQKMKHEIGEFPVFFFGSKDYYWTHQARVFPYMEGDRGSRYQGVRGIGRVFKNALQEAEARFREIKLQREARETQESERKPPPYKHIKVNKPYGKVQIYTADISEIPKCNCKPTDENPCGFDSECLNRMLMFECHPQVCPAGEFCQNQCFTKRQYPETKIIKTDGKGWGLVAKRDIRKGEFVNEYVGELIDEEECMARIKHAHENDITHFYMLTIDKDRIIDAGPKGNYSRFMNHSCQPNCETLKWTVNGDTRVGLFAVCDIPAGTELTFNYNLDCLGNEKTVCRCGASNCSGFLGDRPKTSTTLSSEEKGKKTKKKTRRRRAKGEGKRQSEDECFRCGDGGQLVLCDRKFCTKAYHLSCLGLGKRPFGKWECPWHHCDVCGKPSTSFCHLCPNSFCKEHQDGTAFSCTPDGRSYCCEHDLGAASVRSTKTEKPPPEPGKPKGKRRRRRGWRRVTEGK

[11] = A Cell Based Secondary Assay To Explore Cytotoxicity of Compounds that Sensitize Mycobacterium Tuberculosis to Beta-Lactam Antibiotics.; type: functional
[12] = HEp-2 cell cytotoxicity, dose response, cytotoxicity control for RSV inhibitor project, HTS (AID 2410); type: functional; conditions: human respiratory syncytial virus
[13] = growth suppression of PTEN-null colon cells, dose response, cell-based, HCT116 PTEN knockout (AID 1047); type: functional;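 further: HCT116 colon tumor cells with PTEN knocked out; cells exposed to compound for 60 hours before readout; potency for loss of cell viability measured by luminescence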
[14] = growth suppression of beta-catenin-knockout colon cells, dose response, cell-based, HCT116, human colon tumor (AID 1045); type: functional;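 further: HCT116 colon tumor cells with beta catenin knocked out; cells exposed to compound for 60 hours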

Chain of Estrogen receptor beta (Q92731 whole entry): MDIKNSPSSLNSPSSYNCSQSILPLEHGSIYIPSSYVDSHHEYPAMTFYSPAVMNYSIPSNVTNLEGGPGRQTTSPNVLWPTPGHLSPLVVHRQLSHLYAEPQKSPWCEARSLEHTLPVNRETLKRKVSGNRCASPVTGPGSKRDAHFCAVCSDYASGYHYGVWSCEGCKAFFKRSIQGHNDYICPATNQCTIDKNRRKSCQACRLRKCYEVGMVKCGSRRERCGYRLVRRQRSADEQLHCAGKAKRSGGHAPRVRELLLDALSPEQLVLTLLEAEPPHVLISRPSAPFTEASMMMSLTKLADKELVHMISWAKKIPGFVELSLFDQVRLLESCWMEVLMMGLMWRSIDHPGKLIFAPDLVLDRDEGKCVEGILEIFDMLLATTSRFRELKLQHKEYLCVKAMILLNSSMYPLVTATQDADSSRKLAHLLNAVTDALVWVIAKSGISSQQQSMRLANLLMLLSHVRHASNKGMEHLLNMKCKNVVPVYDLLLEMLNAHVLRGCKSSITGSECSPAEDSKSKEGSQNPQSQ

For `CC(C)CSc1nc2c(c(=O)[nH]c(=O)n2C)n1CC(O)COc1cccc2ccccc12` (stereo not given), the IC50 [1] was > 50 µM (not active).

In the case of `c1ccc(-c2nc(C3CCCCC3)no2)cc1`, the EC50 [2] is reported as > 120 µM (not active), the EC50 [3] is reported as 0.896 µM (active) and the EC50 [4] is reported as 32.8 µM (active). For the same compound, the IC50 [5] was 23.2 µM (active), the IC50 [6] was > 100 µM (inactive) and the IC50 [7] was 66.3 µM (active). The IC50 [1] was > 50 µM (not active) and the IC50 [8] was 57.1 µM (active).

For `COC(=O)c1ccc2c(c1)N(Cc1nc(-c3cccc(C)c3)oc1C)C(=O)C1CCCN21` (stereo not given), the IC50 [9] was > 50 µM (not active).

For `CNCCCC1Sc2ccccc2Oc2ccccc21` (stereo not given), the AC50 [10] was 9.84 µM (active).

In the case of `CC(=O)N(C(C)=O)c1c(C#N)c(C)n(-c2ccccc2)c1C(=O)c1ccccc1`, the IC50 [9] is reported as > 50 µM (not active).

For `Cc1cc(C)n2nc(SCc3cc(=O)oc4cc(O)ccc34)nc2n1`, the IC50 [9] was 10.1 µM (active).

In the case of `Cc1nc2sc3c(c2c2nnc(SCC(=O)NCc4ccco4)n12)CCCC3`, the CC50 [11] is reported as 31.8 µM (active).

With `CCC(C)NCCOCCOc1ccc(Cl)c2ccccc12` (stereo not given) the CC50 [11] was 18.4 µM (active).

With `COC(=O)C1=C(C)NC(=O)/C1=C\c1cc(C)n(-c2c(C)cccc2C)c1C` the CC50 [11] was > 40 µM (active) and the CC50 [12] was 1.88 µM (active).

In the case of `Cc1ccsc1/C=N/Nc1ncc(Cl)cc1Cl`, the EC50 [13] is reported as 12.9 µM (active), the CC50 [11] is reported as 32.4 µM (active) and the EC50 [14] is reported as 15.5 µM (active).
